The values below come from patent US6455559B1, “Phenylacetamido-pyrazole derivatives, process for their preparation and their use as antitumor agents” (Pharmacia Italia S.p.A., priority 2001, dated 2002).

The experiment addresses cdk2/Cyclin A (Homo sapiens, UniProt P24941). Description: inhibition assay of cdk2/Cyclin A activity (MultiScreen-PH phosphocellulose filter plate, histone H1, P33γ-ATP). In kind it is biochemical. The note with it: tested against cdk2/A; read-out: inhibitory activity, expressed as IC50.

Description: The inhibiting activity of putative cdk/cyclin inhibitors and the potency of selected compounds was determined through a method of assay based on the use of the MultiScreen-PH 96 well plate (Millipore), in which phosphocellulose filter paper was placed at each well bottom allowing binding of positive charged substrate after a washing/filtration step.
When a radioactivity labelled phosphate moiety was transferred by the ser/threo kinase to the filter-bound histone, light emitted was measured in a scintillation counter.
The inhibition assay of cdk2/Cyclin A activity was performed according to the following protocol.
Kinase reaction: 1.5 μM histone H1 substrate, 25 μM ATP (0.5 uCi P33γ-ATP), 100 ng Cyclin A/cdk2 complex, 10 μM inhibitor in a final volume of 100 μl buffer (TRIS HCl 10 mM pH 7.5, MgCl2 10 mM, 7.5 mM DTT) were added to each well of a 96 U bottom well plate. After 10 minutes at 37° C. incubation, reaction was stopped by 20 μl EDTA 120 mM.
Capture: 100 μl were transferred from each well MultiScreen plate, to allow substrate binding phosphocellulose filter. […]
Detection: filters were allowed to dry at 37° C., then 100 μl/well scintillant were added and 33P labelled histone H1 was detected by radioactivity counting in the Top-Count instrument.
Results: data were analysed and expressed as % inhibition referred to total activity of enzyme (=100%).

Consider `C[C@H](C(=O)Nc1cc(C2CC2)[nH]n1)c1ccc(N2CCOC2=O)cc1` [(2S)-N-(5-cyclopropyl-1H-pyrazol-3-yl)-2-[4-(2-oxo-1,3-oxazolidin-3-yl)phenyl]propanamide], for which the concentration for half-maximal inhibition (IC50) – broadly, the concentration that gives 50% inhibition – worked out at 8 nM.
